Measured values reported in patent US7973219B2, “Method for producing transgenic plants resistant to weed control compounds which disrupt the porphyrin pathways of plants” (Sumitomo Chemical Company, Limited, priority 1998, dated 2011).

Experiments:
[1] = test system: tobacco into which the gene encoding the variant Chlamydomonas reinhardtii PPO was introduced; experiment: Leaf piece chlorophyll test, tobacco with gene encoding variant Chlamydomonas reinhardtii PPO; type: in vivo; details: Table 10; for Resistant level to test compound: same manner as Example 6 (0.3 ppm), treated vs untreated leaf pieces; for Total chlorophyll content treated-leaf: same manner as Example 6 (0.3 ppm, 7 days in light)
Source text: The tobacco leaves into which bchH gene was introduced and control recombinant tobacco leaves obtained in Example 5 were collected and each leaf was divided into the right and left equivalent pieces along the main vein, respectively. To one piece was applied an aqueous solution containing 0.3 ppm PPO inhibitory-type herbicidal compound of Structure 8, while, to the other piece was not applied the compound. These leaf pieces were placed on MS medium containing 0.8% agar and allowed to stand at room temperature for 7 days in light place. Then, each leaf piece was ground with pestle and mortar in 5 ml of 80% aqueous acetone solution to extract chlorophyll. The extract liquid was diluted with 80% aqueous acetone solution and the absorbance was measured at 750 nm, 663 nm and 645 nm to calculate total chlorophyll content according to the method described by Macknney G., J. Biol. Chem. (1941) 140, p 315. The results obtained from 4 clones of tobacco into which bchH gene was introduced (BCH1 to 4) and control recombinant tobacco is shown in Table 4. In the table, the resistant level to the herbicidal compound was represented by percentages of the total chlorophyll content of leaf pieces treated with herbicidal compound to that of untreated leaf pieces.
Leaf pieces of tobacco cultured sterilely were infected with the Agrobacterium strain and, according to the same manner as in Example 5, tobacco into which the gene encoding the variant Chlamydomonas reinhardtii PPO was introduced was obtained.
The level of resistance to the PPO-inhibitory type herbicidal compound represented by Structure 8 was confirmed quantitatively by testing tobacco into which the gene encoding the variant Chlamydomonas reinhardtii PPO prepared in Example 18 was introduced according to the same manner as in Example 6. The results obtained from 4 clones (CRP 1-4) of tobacco into which the gene encoding the variant Chlamydomonas reinhardtii PPO was introduced and control recombinant tobacco is shown in Table 10. In the table, the resistant levels to the herbicidal compound are represented by percentages of the total chlorophyll content of leaf pieces treated with the herbicidal compound to that of untreated leaf pieces.

[2] = test system: E. coli BT3/pACYCSP strain; experiment: Growth of E. coli BT3/pACYCSP with herbicidal compound (absorbance at 600 nm); type: cell-based, Escherichia coli; details: 18 hours culture, A600, medium without compound = 1, Table 1
Source text: According to the description of Gibson, L. C. D. et al., Proc. Natl. Acad. Sci. USA, 92; p 1941 (1995), the DNA fragment containing bchH gene prepared in Example 1 was digested with the restriction enzymes NdeI and BglII. The resultant DNA fragment was inserted between NdeI restriction site and BamHI restriction site of expression vector pET11a (manufactured by Stratagene) to obtain plasmid pETBCH (FIG. 1). This plasmid pETBCH was introduced into E. coli BL21(DE3) strain competent cells (manufactured by Stratagene) according to the manual attached to the competent cells to obtain E. coli BL21(DE3)/pETBCH strain. The strain was inoculated into 1.5 ml LB liquid culture medium (1% tryptone, 0.5% yeast extract, 0.5% NaCl) containing 100 μg/ml ampicillin in a tube (14×10 mm), and the tube was covered with aluminum foil (hereinafter referred to as dark conditions), cultured with shaking at 37° C. under light of fluorescent lamp (about 8000 lux). When the absorbance at 600 nm of the liquid culture medium became about 0.6, isopropyl β-D-thiogalactopyranoside (IPTG) was added to the liquid culture medium so that the final concentration was 0.4 mM, and the culture was continued for about additional 20 hours. […] In contrast to this, when E. coli BL21(DE3)/pETBCH strain was cultured according to the same manner (with IPTG) except that the tube was not covered with aluminum foil (hereinafter referred to as light conditions), E. coli grew and turned red as above.
The plasmid pSPPO-P was digested with restriction enzyme PshBI, the resultant DNA fragment was blunted by using T4 DNA polymerase and further digested with SphI to isolate the DNA fragment containing chloroplast-type PPO gene of soybean and lac promoter. Then, the plasmid pACYC184 (manufactured by Nippon Gene) was digested with the restriction enzymes NruI and SphI to remove a fragment of 410 bp and the above DNA fragment was inserted instead to obtain plasmid pACYCSP (FIG. 2). […]
E. coli BT3/pACYCSP strain prepared in Example 3 was inoculated into YPT medium containing 10 or 1 ppm of PPO inhibitory type herbicidal compound represented by the above Structure 8, 10 μg/ml hemin, 50 μg/ml aminolevulinic acid, 15 μg/ml chloramphenicol and 10 μg/ml kanamycin, cultured under dark conditions or light conditions according to the same manner as in Example 2. […] Then, 18 hours after initiation of culture, the absorbance of the liquid culture medium was measured at 600 nm. By taking the absorbance of the medium without the herbicidal compound as 1, the relative value of the absorbance of the medium containing the herbicidal compound was calculated.

In the case of `C#CCOc1cc(N2C(=O)C3=C(CCCC3)C2=O)c(F)cc1Cl` [Structure 8], the “Resistant level to test compound” value ([1]; clone CRP-1) is reported as 121%, the “Total chlorophyll content treated-leaf” value ([1]; clone CRP-1) is reported as 1.54 mg/g-fresh weight and the “Resistant level to test compound” value ([1]; clone CRP-2) is reported as 111%. The “Total chlorophyll content treated-leaf” value ([1]; clone CRP-2) was 1.67 mg/g-fresh weight, the “Resistant level to test compound” value ([1]; clone CRP-3) was 101% and the “Total chlorophyll content treated-leaf” value ([1]; clone CRP-3) was 1.11 mg/g-fresh weight. The “Resistant level to test compound” value ([1]; clone CRP-4) was 99.4%, the Relative absorbance ([2]; in the dark, 1 ppm) was 0.95 and the Relative absorbance ([2]; in the dark, 10 ppm) was 0.73. The Relative absorbance ([2]; in the light, 1 ppm) was 0.25 and the Relative absorbance ([2]; in the light, 10 ppm) was 0.10.
